Legend:
[1] = system: A431 cells; experiment: DMR primary profiles of known GPCR agonists in A431 cells (receptor panning, cluster analysis); format: cell-based, human; conditions: each agonist at 10 micromolar, max-min of 40 picometer cutoff
Experimental: (§1) Cells were typically grown using ˜1 to 2×10^4 cells per well at passage 3 to 15 suspended in 50 μl of the corresponding culture medium in the biosensor microplate, and were cultured at 37° C. under air/5% CO2 for ˜1 day. Except for A431 cells which underwent one day (at least 14 hours) culture followed by one day (at least 14 hours) starvation in serum free medium, all other cells were directly assayed without starvation. The confluency for all cells at the time of assays was ˜95% to 100%.
An Epic® beta version wavelength interrogation system (Corning Inc., Corning, N.Y.) was used for whole cell sensing. This system consists of a temperature-control unit, an optical detection unit, and an on-board liquid handling unit with robotics. The detection unit is centered on integrated fiber optics, and enables kinetic measures of cellular responses with a time interval of ˜15 sec.
(§2) For biosensor cellular assays, molecule solutions were made by diluting the stored concentrated solutions with the HBSS (1× Hanks balanced salt solution, plus 20 mM Hepes, pH 7.1), and transferred into a 384well polypropylene molecule storage plate to prepare a molecule source plate. Both molecule and marker source plates were made separately when a two-step assay was performed. In parallel, the cells were washed twice with the HBSS and maintained in 30 μl of the HBSS to prepare a cell assay plate. Both the cell assay plate and the molecule and marker source plate(s) were then incubated in the hotel of the reader system. After ˜1 hr of incubation the baseline wavelengths of all biosensors in the cell assay microplate were recorded and normalized to zero. Afterwards, a 2 to 10 minute continuous recording was carried out to establish a baseline, and to ensure that the cells reached a steady state. Cellular responses were then triggered by pipetting 10 μl of the marker solutions into the cell assay plate using the on-board liquid handler.
All studies were carried out at a controlled temperature (28° C.). At least two independent sets of experiments, each with at least three replicates, were performed. […] A typical DMR signal of cells, as measured using Epic system, is a real time kinetic response which consists a baseline pre-stimulation (often normalized to zero), and a cellular response post stimulation.
To pan endogenous G protein-coupled receptors (GPCRs) that are functional in label-free biosensor cellular assays, a library of known GPCR agonists was made. A431 cells were grown to monolayer on the Epic® 384well biosensor cell culture compatible microplates and subject to overnight starvation. After replacing the cell medium with 1×HBSS buffer and reaching equilibrium within the Epic® system, the cells were stimulated with known GPCR agonists, each at 10 micromolar. The known adenylate cyclase activator forskolin was also included as a positive control for the cAMP-PKA pathway.
Pattern recognition and pattern matching can be used to visualize their relations. However, when the numbers of molecule biosensor primary profiles increase dramatically, it becomes more difficult to use conventional pattern recognition methods, such as supervised learning, to study the relations of the molecule primary indices. Clustering analysis has been widely and successfully used in gene expression and protein network analysis which often deals with large datasets. Thus, clustering analysis and its parameters were identified herein to categorize the molecule primary indices. Both Hierarchical and k-Means clustering methods were examined. […] Here a max-min of 40 picometer was used as a cutoff to filter the original data. This heat map was generated using the real responses of each GPCR agonist at a 1-min time interval post stimulation.

[2] = system: 15 marker/4 cell line panel (A549, A431, HT29, HepG2 cells); experiment: Biosensor modulation indices against a 15 marker/4 cell line panel, Hierarchical Euclidean cluster analysis; format: cell-based; conditions: 15 markers at EC100 in A549, A431, HT29, HepG2 cells; library of ~2000 compounds
Experimental: as §1, §2
To study the influence of molecules on a marker-induced response, a second stimulation with the marker at a fixed dose (typically at EC80 or EC 100) was applied. The resonant wavelengths of all biosensors in the microplate were normalized again to establish a second baseline, right before the second stimulation. The two stimulations were usually separated by ˜1 hr.
To further explore the potential of cluster analysis for label-free integrative pharmacology, a library of ˜2000 compounds were subject to label-free integrative pharmacology analysis against a 15 marker/4 cell line panel. The cell/marker panel consists of the A549 cell (the mitochondria KATP opener pinacidil, the TLR3 agonist poly(I:C), the protein kinase C activator PMA, the adenylate cyclase activator forskolin, the PAR2 agonist SLIGKV, and the histamine H1 receptor agonist histamine), A431 cells (the β2AR agonist epinephrine, the EGFR agonist EGF, the GPR109A agonist nicotinic acid, and the histamine H1 receptor agonist histamine), HT29 cells (the EGFR/HER2 agonist EGF, the neurotensin receptor NTS1/NTS3 agonist neurotensin, the IGF1 receptor IGF1, and the hERG activator mallotoxin), and the HepG2 cell (the TL9 agonist ODN2006). All molecules in the library were screened in four cell lines to produce a library of biosensor primary indices. In addition, all molecules in the library were also screened in the four cell lines against each respective marker at EC100 to produce a library of biosensor modulation indices. The modulation indices were generated by normalizing the marker DMR signal in the presence of a molecule to the marker DMR in the absence of a molecule. For each marker, one or two specific DMR events were used for normalization. For A549 cells, it is pinacidil (the N-DMR at 30 min; pinacidil), Poly(I:C) (the P-DMR at 50 min, poly(I:C)), PMA (the P-DMR at 50 min, PMA), SLIGKV (the P-DMR at 20 min, SLIGKV), forskolin (the P-DMR at 50 min, Forskolin), Histamine (the P-DMR at 10 min, His1; the P-DMR at 30 min, His2) (the bolded name was indicated in FIG. 6, the same is for the below). For A431 cells, it is epinephrine (the P-DMR at 50 min, Epi), nicotinic acid (the N-DMR at 3 min, NA), EGF (the P-DMR at 5 min, EGF1; the N-DMR at 40 min, EGF2), and histamine (the P-DMR at 3 min, His3).

[3] = target: T1, β2-AR (Homo sapiens, UniProt P07550); experiment: DMR assays of a panel of β2-AR ligands in quiescent A431 cells, multi-parameter and cluster analysis; format: cell-based; conditions: for heat map classification of β2-AR agonist pharmacology based on DMR parameters: DMR parameters normalized to the epinephrine response; for saturating concentration for the DMR signal: FIG. 7
T1 construct: All of these receptors were endogenously expressed in A431 cells, as confirmed by quantitative RT-PCR; endogenous in cells; host or cells: quiescent (serum-starved) A431 cells
Experimental: as §1, §2
Label-free receptor assays allow a greater array of changes in the receptor to be detected. […] The heat map was generated using the Euclidean hierarchical cluster analysis, after all DMR parameters were normalized to the epinephrine response.

T1 sequence (P07550 whole entry): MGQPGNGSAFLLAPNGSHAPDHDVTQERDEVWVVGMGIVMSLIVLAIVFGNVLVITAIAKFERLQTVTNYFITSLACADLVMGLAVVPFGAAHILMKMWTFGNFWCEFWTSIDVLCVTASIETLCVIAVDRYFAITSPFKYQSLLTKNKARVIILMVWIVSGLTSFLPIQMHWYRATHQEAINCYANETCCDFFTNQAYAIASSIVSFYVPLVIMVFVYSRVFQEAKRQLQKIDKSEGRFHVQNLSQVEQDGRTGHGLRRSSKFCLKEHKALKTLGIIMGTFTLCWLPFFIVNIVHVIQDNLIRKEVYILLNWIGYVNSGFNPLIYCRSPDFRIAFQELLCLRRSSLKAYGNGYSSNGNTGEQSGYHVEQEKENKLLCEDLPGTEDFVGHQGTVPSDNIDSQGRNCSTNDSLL

Structure (SMILES) | cluster of the agonist-induced primary DMR signal (two dimensional Hierarchical clustering, heat map) [1] | node cluster by biosensor modulation index (similarity to known anti-histamines) [2] | heat map classification of β2-AR agonist pharmacology based on DMR parameters [3] | further results
OC[C@H]1O[C@@H](n2cnc3c(NC4CCCC4)nc(Cl)nc32)[C@H](O)[C@@H]1O [CCPA] | belong to the same cluster | – | – | –
CN(C)CCCN1c2ccccc2Sc2ccc(Cl)cc21 [Chlorpromazine] | – | specific node cluster that consists of 8 compounds | – | –
CN1CCC(=C2c3ccccc3CC(=O)c3sccc32)CC1 [ketotifen] | – | specific node cluster that consists of 8 compounds | – | –
NCCc1ccc(O)c(O)c1 [dopamine] | – | – | partial agonists | saturating concentration for the DMR signal [3]: 32 µM
O=c1cc(N2CCNCC2)oc2c(-c3ccccc3)cccc12 [LY303511] | – | can also be a histamine H1R or a H1R pathway antagonist | – | –
Fc1ccc(C(c2ccc(F)cc2)N2CCN(C/C=C/c3ccccc3)CC2)cc1 [flunarizine] | – | specific node cluster that consists of 8 compounds | – | –
CNC[C@H](O)c1ccc(O)c(O)c1 [epinephrine] | – | – | full agonists and strong partial agonists | amplitudes of the DMR signal [3]: maximum amplitudes; kinetics for the P-DMR event [3]: slow kinetics; transition time of the DMR signal [3]: fast transition time; saturating concentration for the DMR signal [3]: 0.008 µM
CNC(=O)[C@H]1O[C@@H](n2cnc3c(NCc4cccc(I)c4)ncnc32)[C@H](O)[C@@H]1O [IB-MECA] | belong to the same cluster | – | – | –
NC[C@H](O)c1ccc(O)c(O)c1 [norepinephrine] | – | – | full agonists and strong partial agonists | saturating concentration for the DMR signal [3]: 0.1 µM
O=c1ccn([C@@H]2O[C@H](COP(=O)(O)OP(=O)(O)OP(=O)(O)O)[C@@H](O)[C@H]2O)c(=O)[nH]1 [UTP] | belong to the same cluster | – | – | –
CNCC(O)c1ccccc1 (centres unmarked) [halostachine] | – | – | partial agonists | amplitudes of the DMR signal [3]: smaller amplitudes; kinetics for the P-DMR event [3]: faster kinetics; transition time of the DMR signal [3]: slightly slower transition time
Cc1nc2n(c(=O)c1CCN1CCC(c3noc4cc(F)ccc34)CC1)CCCC2 [risperidone] | – | specific node cluster that consists of 8 compounds | – | –
Nc1ncnc2c1ncn2[C@@H]1O[C@H](CO)[C@@H](O)[C@H]1O [adenosine] | belong to the same cluster | – | – | –
Nc1ncnc2c1ncn2[C@@H]1O[C@H](COP(=O)(O)OP(=O)(O)OP(=O)(O)O)[C@@H](O)[C@H]1O [ATP] | belong to the same cluster | – | – | –
CCNC(=O)[C@H]1O[C@@H](n2cnc3c(N)nc(NCCc4ccc(CCC(=O)O)cc4)nc32)[C@H](O)[C@@H]1O [CGS21680] | belong to the same cluster | – | – | –
C[C@@H]1CN([C@H]2CC[C@](C#N)(c3ccc(F)cc3)CC2)CC[C@]1(C(=O)O)c1ccccc1 [levocabastine] | – | specific node cluster that consists of 8 compounds | – | –
CC(C)NCC(O)COc1cccc2[nH]ccc12 (centres unmarked) [pindolol] | – | – | beta-blockers with weak partial agonism activity | –
O=C(NCCNCC(O)COc1ccc(O)cc1)N1CCOCC1 (centres unmarked) [xamoterol] | – | – | between the second and third group | –
Oc1ccccc1O [catechol] | – | – | between the second and third group | amplitudes of the DMR signal [3]: smaller amplitudes; kinetics for the P-DMR event [3]: faster kinetics; transition time of the DMR signal [3]: slightly slower transition time; saturating concentration for the DMR signal [3]: 500 µM
